Structures can show the parent of a compound that is named as a salt.
Experiments:
[1] = system: C57BL/6J mice; assay: Survival and GI injury after three daily doses of CPT-11; format: in vivo, mouse
Text: (§1) Immediately after sacrifice, about 10-cm portion of the jejunum was removed and carefully rinsed with ice-cold saline. The tissue was opened longitudinally and tacked to a foam board for fixation overnight in 10% formalin. Tissues were then rolled up into “swiss rolls” and embedded in paraffin. For tumor analysis, flank tumors were removed, measured, and cut into pieces for either formalin fixation or flash freezing in a dry ice/ethanol bath. Tissue sections (5 um) were deparaffinized and rehydrated through graded ethanols. Histological analysis was performed by hematoxylin and eosin (H&E) staining.
; CPT-11). […] . […] BH3-only proteins BIM and NOXA were not induced by CPT-11 or affected by Puma KO (FIG. 8F). […] . […] . Histological analysis confirmed lethal GI injury in WT and p53 KO mice on day 5, showing severe loss of crypts and shortening of villi, which was abrogated in Puma KO mice (FIG. 1F).

[2] = system: WT mice; assay: Survival after total body irradiation; format: in vivo, mouse; conditions: 9.5 and 15 gray TBI; PUMAi 10 mg/kg 30 min before and after, then daily for 4 days
Method: (FIG. 12A) and (FIG. 12B) Survival of WT mice treated with 3 daily doses of 180 mg/kg/day (A) and 250 mg/kg/day (B) CPT-11, respectively, on days 0, 1, and 2. PUMAi (10 mg/kg) was given 2 hours before each dose of CPT-11 and 20 hours after the final dose. (FIG. 12C) and (FIG. 12D) Survival of WT mice after total body irradiation (TBI) at 9.5 Gy (FIG. 12C) and 15 Gy (FIG. 12D). PUMAi (10 mg/kg) was given 30 min before and 30 min after TBI, and then daily for 4 days. Survivors at 9.5 Gy TBI in C were sacrificed on day 40 with no obvious health problems. P values were calculated by log-rank test.

[3] = system: Lewis lung carcinoma (LLC) tumors; assay: LLC tumor-bearing mice treated with CPT-11 six times over 2 weeks; format: in vivo, mouse
Method: For tumor experiments, 4 million LLC cells [American Type Culture Collection (ATCC)] were injected into the flanks of WT and Puma KO mice and allowed to grow for 11 days. Mice were then treated with CPT-11 (200 mg/kg) three times per week for 2 weeks. PUMAi (10 mg/kg) or vehicle control was administered by intraperitoneal injection 2 hours before and 20 hours after each dose of CPT-11. Mice were sacrificed 4 hours after the final CPT-11 treatment.
For tumor experiments, mice were treated with CPT-11 three times per week for two weeks. Mice receiving PUMAi were treated 2 hours before each dose of CPT-11 and 20 hours after. Mice were sacrificed four hours after the final CPT-11 treatment (FIG. 13A). Tumor volumes were measured with calipers and calculated as volume=(length x width2)/2. Mice were 7-9 weeks old, and roughly equal numbers of male and female animals were used. To account for variations in starting body weights, the values in FIGS. 3 and 4 are expressed as a percentage of the respective mouse weights at the time of the first CPT-11 treatment.
as §1
Average villus height was determined by measuring 40 to 50 villi from different locations of the small intestine, from at least three different animals per group, and reported as means A} SEM. Measurements were made from the top of the crypt to the tip of the villus using 100 Å˜H&E images and SPOT 5.1 Advanced software (Diagnostic Instruments Inc.).
Neutrophil IF. Sections were prepared as described above. […] Sections were then incubated with AlexaFluor-594 goat antirat secondary antibodies (1:200; A11007; Invitrogen) for 1 hour at room temperature and counterstained with VectaShield plus DAPI.

[4] = system: mouse colonic organoids; assay: Mouse colonic organoids treated with CPT; format: cell-based; conditions: PUMAi 50 uM
Method: Fresh mucosal scrapings from 10 cm of jejunum were washed in cold PBS, resuspended in 700 ul of RNA lysis buffer, and homogenized in a Dounce homogenizer. RNA was isolated using the Quick-RNA MiniPrep kit (Zymo Research) according to the manufacturer's instructions. Organoids were freed from Matrigel using Cell Recovery Solution (Corning), as described in, before RNA isolation. Complementary DNA was generated from 2 ug of total RNA from mice or ˜100 ng of total RNA from colonic organoids and was pooled from three mice or three wells of organoid culture per treatment group using SuperScript III reverse transcriptase (Invitrogen) and random primers. Gene expression was normalized to Gapdh. Representative results are shown, and similar results were obtained in at least three independent experiments. Details on mouse and human primers are found in Tables 1 and 2.
Mouse crypt isolation, organoid development, and passage were done as previously described with minor modifications. In brief, the complete culture medium for mouse intestinal organoids was slightly modified as follows: advanced Dulbecco's modified Eagle medium (DMEM)/F12 (12634-010, Invitrogen) was supplemented with 100 units/ml penicillin/0.1 mg/ml streptomycin (Invitrogen), 2 mM GlutaMAX (ThermoFisher), 20% (vol/vol) FBS (S11150, ATLANTA Biologicals), and WRN-conditioned medium (50%, vol/vol). Freshly isolated crypts were cultured with the same medium plus 10 μM Y-27632 (Y0503 Sigma) and 100 μg/ml Primocin (ant-pm-1, InvivoGen). For CPT and PUMAi treatment, intestinal organoids were passaged and re-plated in 25 μL of Matrigel (356231, Corning) in 24-well plates 24 hours before treatment with CPT (0.5 μM, C9911, Sigma-Aldrich) and PUMAi (50 μM) for 24 hours. The CPT-containing medium was replaced with complete medium containing PUMAi (50 μM). Three groups (treatment control, CPT only, and CPT plus PUMAi) were set up. Organoids 100 μm or greater in diameter were enumerated on day 6 after CPT treatment. Similar results were obtained from at least three independent experiments with triplicate wells in each experiment.

[5] = system: intestinal crypts; assay: CPT-11-induced intestinal crypt apoptosis in mice (TUNEL, active caspase-3)
Method: Puma+/+ (WT) and Puma−/− (Puma KO) mice (52) were generated in-house by heterozygote breeding. WT and Puma KO alleles were genotyped from genomic DNA isolated from tail snips, as described (52). p53−/− (p53 KO) mice were purchased from the Jackson Laboratory. […] All strains are in or have been backcrossed with the C57BL/6 background for more than 10 generations (F10). Mice were housed in microisolator cages in a room illuminated from 07:00 to 19:00 hours (12:12-hour light/dark cycle), with access to water and chow ad libitum.
Rehydrated sections were treated with 3% hydrogen peroxide (immunochemistry only), followed by antigen retrieval for 10 min in boiling 0.1 M citrate buffer (pH 6.0) with 1 mM EDTA. Apoptosis was analyzed by TUNEL staining with the ApopTag Peroxidase In Situ Apoptosis Detection kit (Chemicon International) according to the manufacturer's instructions.
Active caspase 3 IHC. Sections were deparaffinized and rehydrated through graded ethanols. Rehydrated sections were then treated with 3% hydrogen peroxide, followed by antigen retrieval for 10 minutes in boiling 0.1 M citrate buffer (pH 6.0) with 1 mM EDTA. Non-specific antibody binding was blocked using 20% goat serum (Invitrogen) at room temperature for 30 minutes.

OCCN1CCN(CC(O)COc2ccc3ccccc3c2)CC1 (stereo not shown) [PUMAi, 1-[4-(2-hydroxyethyl)-1-piperazinyl]-3-(2-naphthyloxy)-2-propanol dihydrochloride] was tested, and the “survival at the LD90 of CPT-11” value ([1]; CPT-11 215 mg/kg per day x3, PUMAi 10 mg/kg 2 h before each dose, WT mice) was 70%, the CPT-11-induced lethality ([1]; CPT-11 180, 215, 250 mg/kg/day x3, PUMAi 10 mg/kg) was “decreased CPT-11-induced lethality at three different doses” and the “GI injury by histological analysis” value ([1]; day 5, CPT-11 215 mg/kg per day x3, compared to WT mice) was “reduced GI injury”. For the same compound, the “survival after total body irradiation” value [2] was “increased the survival”, the “CPT-11-induced weight loss, intestinal damage and lethality” value ([3]; PUMAi 10 mg/kg 2 h before and 20 h after each CPT-11 dose) was “highly resistant” and the “tumor response to CPT-11” value ([3]; PUMAi 10 mg/kg 2 h before and 20 h after each CPT-11 dose, vs vehicle group) was “comparable tumor response”. The “% mice compieting treatment” value ([3]; WT mice, LLC tumor experiments) was 100% (5/5), the “grooming and physical activity” value ([3]; daily inspections throughout the study) was “improved grooming and physical activity” and the “CPT-induced activation of WNT and NOTCH targets (Lgr5, CD44, Olfm4)” value ([4]; 24 h after CPT) was “suppressed CPT-induced activation of WNT and NOTCH targets”. For the same compound, the “CPT-induced growth suppression and caspase-3 activation” value ([4]; CPT 500 nM 24 h) was “strongly blocked”, the “crypt apoptosis, PUMAi given after CPT-11” value ([5]; PUMAi 10 mg/kg 1 hour after CPT-11 200 mg/kg, 6 h) was “still reduced apoptosis effectively” and the “TUNEL and active caspase-3 staining in crypts” value ([5]; PUMAi 10 mg/kg 2 h before CPT-11 200 mg/kg, 6 and 24 h, WT mice) was “reduced TUNEL and active caspase-3 staining preferentially in the CBCs”. The “crypt apoptosis in Puma KO mice” value ([5]; Puma KO mice, CPT-11 200 mg/kg, 6 h) was “did not further reduce crypt apoptosis”.

— patent US20220125746A1, “METHOD OF PREVENTING OR TREATING TREATMENT-INDUCED GASTROINTESTINAL INJURY” (priority 2019, published 2022)
